Laboratory results taken from US20090246481A1, “DISPERSION OF WATER-INSOLUBLE COLORANT, METHOD OF PRODUCING SUBSTANCE CONTAINING WATER-INSOLUBLE COLORANT, FINE PARTICLES OF WATER-INSOLUBLE COLORANT, DISPERSING AGENT FOR WATER-INSOLUBLE COLORANT, AND RECORDING LIQUID, INK SET, PRINTED ARTICLE, METHOD OF FORMING IMAGE AND IMAGE FORMING APPARATUS …” (FUJIFILM Corporation, priority 2008, published 2009).

Assay: pKa of monomers by neutralization titration
Format: physicochemical
Conditions: tetrahydrofuran/water=6:4
Experimental: The pKa value of each monomer was calculated in accordance with a neutralization titration method in a system of tetrahydrofuran/water=6:4 by means of an automatic titrator COM-2500 (trade name) manufactured by Hiranuma Sangyo Co., Ltd.

pKa | SMILES
3.98 | C=C(C)C(=O)O [Methacrylic acid]
3.96 | C=C(C)C(=O)NS(C)(=O)=O [Monomer 1]
